“And” between values parts separate entries of the source, which are not always exact repeats. Identical values can stand only once. Counter-ions that a name gives are not always drawn. Like-named read-outs stand apart in the source and are kept apart here.
Key:
[1] = tested on: mucin immobilized to IAM.PC.DD2; assay: HPLC on MIC column (2:1 mucin to PC IAM particles): retention time, k′MIC, derived Km and Peff MIC; conditions: for log k′MIC / K′MIC: MIC 2:1; for k′MIC / Retention Time: MIC column 2:1 mucin:IAM, MPS pH 7.4; for Retention Time: isocratic 0.3 ml/min; for Dm: membrane diffusion coefficient calculated from molecular weight
Experimental: [formula] where Dm is the membrane diffusion coefficient of the solute, Km is the membrane equilibrium constant, and L is the membrane thickness (Stein, W., Transport and Diffusion Across Cell Membranes, Academic Press, Orlando, Fla. (1986)). […] Since molecular weight, MW, is proportional to molecular size, Dm may also written as,
[formula] Thus, Dm can be calculated from the molecular weight. Furthermore, Km is calculated by the following equation, Km−(Vm/Vs)k′, [4] where Vm is the volume of the mobile phase, Vs is the internal volume of the stationary phase, and k′ is the partition ratio (Pidgeon and Ong, Chemtech. June, 38-48 (1995)). The partition ratio is determined by the equation, k′−(tr−to)/to, [5] where tr is the retention time of the drug and to is the void volume of the column. Both tr and to can be experimentally determined in order to obtain k′.
Equation 2 can be used to determine Km for a given MIC medium. Both Dm and L are known from the discussion above, and Peff can be calculated for various drugs having known in vivo absorption. For example, a number of drug permeability coefficients, Peff, derived from in vivo experiments are listed in literature. […] See Example 5 below.

Caco-2 = conditions: from literature, cited from earlier work
[2] = from literature; cited from earlier work
[3] = tested on: mucin immobilized to PC IAM particles; assay: pH and mucin layer thickness dependence of partition ratio on MIC columns (1:2 and 2:1); conditions: for (1:2) k′ (pH 3) / (1:2) k′ (pH 5) / (1:2) k′ (pH 7): column 1:2 mucin to PC IAM, 0.32 μm mucin layer; for (1:2) k′ (pH 3) / (2:1) k′ (pH 3): mobile phase pH 3; for (1:2) k′ (pH 5) / (2:1) k′ (pH 5): mobile phase pH 5; for (1:2) k′ (pH 7) / (2:1) k′ (pH 7): mobile phase pH 7; for (2:1) k′ (pH 3) / (2:1) k′ (pH 5) / (2:1) k′ (pH 7): column 2:1 mucin to PC IAM, 0.36 μm mucin layer; for k′MIC (1:2): column 1:2, 0.32 μm; for k′MIC (1:2) / k′MIC (2:1): pH 7, Table 9; for k′MIC (2:1): column 2:1, 0.36 μm
Experimental: Samples were dissolved in mobile phase solution and filtered (filter pore size, 0.45 μm) prior to injection. […] From this measurement and a measurement of the void volume (t0) the k′MIC could be determined. In addition, from the molecular weight of the compounds, Dm could be determined. These compounds, with the exceptions noted below, were used to generate the column constant (Vm/Vs).
For these reasons, the influence of pH on drug retention times was measured on columns having two different mucin layer thicknesses, 0.32 μm (column prepared with a 1:2 wt % of mucin to PC IAM particles) and 0.36 μm (column prepared with a 2:1 wt % of mucin to PC IAM particles)(Table 8). […] The influence of pH on drug retention time was measured by using different mobile phase buffers adjusted to pH 3, 5 or 7 on either the 0.32 μm or 0.36 μm column.
Capacity factors were calculated from drug retention times collected on columns having two different mucin layer thicknesses, 0.32 μm (column prepared with a 1:2 wt % of mucin to PC IAM particles) and 0.36 μm (column prepared with a 2:1 wt % of mucin to PC IAM particles).

[4] = cited from earlier work
[5] = single-pass perfusions, cited from earlier work
[6] = determined by linear equation, Table 5
[7] = determined by linear equation, Table 6

## CC(C)NCC(O)COc1cccc2ccccc12 (stereo not drawn) [Propranolol]
[1]
  δ = log k′MIC − log k′IAM: 0.10
  log k′MIC: 1.85
  k′MIC: 70.4286
  Retention Time: 5.0
  Dm: 0.0034
[1]; Table 5
  K′MIC: 70.43
[1]; Table 6
  K′MIC: 70.43
[1]; [6]
  Peff MIC (×10^−4 cm/s): 4.24 ×10^−4 cm/s
[1]; [7]
  Peff MIC (×10^−4 cm/s): 4.24 ×10^−4 cm/s
Caco-2; Table 5
  Peff Caco-2 (×10^−6 cm/s): 21.8 ×10^−6 cm/s
Caco-2; Table 6
  Peff Caco-2 (×10^−6 cm/s): 21.8 ×10^−6 cm/s
[2]
  log k′IAM: 1.75
[3]
  (1:2) k′ (pH 3): 75.67
  (1:2) k′ (pH 5): 92.33
  (1:2) k′ (pH 7): 99.00
  (2:1) k′ (pH 3): 49.00
  (2:1) k′ (pH 5): 59.00
  (2:1) k′ (pH 7): 99.00

## Cc1cc(=O)n(-c2ccccc2)n1C [Antipyrine]
[1]
  δ = log k′MIC − log k′IAM: 1.91
  log k′MIC: 1.89
  k′MIC: 77.5714
  Retention Time: 5.5
  Dm: 0.0053
[1]; Table 5
  K′MIC: 77.57
[2]
  log k′IAM: −0.02
[4]; in vivo
  % Absorbed: 100%
[5]; Table 5
  Peff Loc-I-Gut (×10^−4 cm/s): 5.6 ×10^−4 cm/s
[5]; Table 9
  Peff Loc-I-Gut (×10^−4 cm/s): 5.6 ×10^−4 cm/s
[3]
  k′MIC (1:2): 50.7
  (1:2) k′ (pH 3): 54.00
  (1:2) k′ (pH 5): 54.00
  (1:2) k′ (pH 7): 50.67
  k′MIC (2:1): 40.7
  (2:1) k′ (pH 3): 40.43
  (2:1) k′ (pH 5): 39.00
  (2:1) k′ (pH 7): 40.67

## C[C@](N)(Cc1ccc(O)c(O)c1)C(=O)O [α-methyldopa]
[1]
  Peff MIC (×10^−4 cm/s): 0.10 ×10^−4 cm/s
  k′MIC: 33.2857
  Retention Time: 2.4
  Dm: 0.0047
[1]; Table 5
  K′MIC: 33.29
[4]; Table 5
  % Absorbed: 0%
[5]; Table 5
  Peff Loc-I-Gut (×10^−4 cm/s): 0.2 ×10^−4 cm/s

## CC(C)NCC(O)COc1ccc(CC(N)=O)cc1 (stereo not drawn) [Atenolol]
[4]; Table 5
  % Absorbed: 50%
[4]; Table 6
  % Absorbed: 50%
[5]; Table 5
  Peff Loc-I-Gut (×10^−4 cm/s): 0.15 ×10^−4 cm/s
[5]; Table 6
  Peff Loc-I-Gut (×10^−4 cm/s): 0.15 ×10^−4 cm/s
[5]; Table 9
  Peff Loc-I-Gut (×10^−4 cm/s): 0.2 ×10^−4 cm/s
[3]
  k′MIC (1:2): 39
  (1:2) k′ (pH 3): 39.00
  (1:2) k′ (pH 5): 39.00
  (1:2) k′ (pH 7): 39.00
  k′MIC (2:1): 37
  (2:1) k′ (pH 3): 29.00
  (2:1) k′ (pH 5): 31.86
  (2:1) k′ (pH 7): 37.33

## NS(=O)(=O)c1cc(C(=O)O)c(NCc2ccco2)cc1Cl [Furosemide]
[4]; Table 5
  % Absorbed: 60%
[5]; Table 5
  Peff Loc-I-Gut (×10^−4 cm/s): 0.3 ×10^−4 cm/s
[5]; Table 9
  Peff Loc-I-Gut (×10^−4 cm/s): 0.3 ×10^−4 cm/s
[3]
  k′MIC (1:2): 35.7
  (1:2) k′ (pH 3): 40.67
  (1:2) k′ (pH 5): 37.33
  (1:2) k′ (pH 7): 35.67
  k′MIC (2:1): 25.7
  (2:1) k′ (pH 3): 30.43
  (2:1) k′ (pH 5): 27.57
  (2:1) k′ (pH 7): 25.67

## CN(CC(=O)O)C(=N)N [Creatine]
[1]; Table 5
  K′MIC: 30.43
[1]
  k′MIC: 30.4286
  Retention Time: 2.2
  Dm: 0.0088
[1]; [6]
  Peff MIC (×10^−4 cm/s): −0.22 ×10^−4 cm/s
[4]; Table 5
  % Absorbed: 0%
[5]; Table 5
  Peff Loc-I-Gut (×10^−4 cm/s): 0.3 ×10^−4 cm/s
[5]; Table 9
  Peff Loc-I-Gut (×10^−4 cm/s): 0.3 ×10^−4 cm/s
[3]
  k′MIC (1:2): 25.7
  (1:2) k′ (pH 3): 39.00
  (1:2) k′ (pH 5): 39.00
  (1:2) k′ (pH 7): 39.00
  k′MIC (2:1): 24
  (2:1) k′ (pH 3): 20.43
  (2:1) k′ (pH 5): 23.29
  (2:1) k′ (pH 7): 32.33

## C[C@]12C[C@H](O)[C@H]3[C@@H](CCC4=CC(=O)CC[C@@]43C)[C@@H]1CC[C@@H]2C(=O)CO [corticosterone]
[1]
  δ = log k′MIC − log k′IAM: 0.18
  log k′MIC: 1.78
  k′MIC: 60.4286
  Retention Time: 4.3
  Dm: 0.0029
[2]
  log k′IAM: 1.60
[4]; Table 7
  % Absorbed: 100%
[3]
  (1:2) k′ (pH 3): 24.00
  (1:2) k′ (pH 5): 22.33
  (1:2) k′ (pH 7): 24.00
  (2:1) k′ (pH 3): 20.43
  (2:1) k′ (pH 5): 20.43
  (2:1) k′ (pH 7): 24.00

## CCOC(=O)[C@H](CCc1ccccc1)N[C@@H](C)C(=O)N1CCC[C@H]1C(=O)O [enalapril maleate]
[1]; Table 5
  K′MIC: 35.86
[1]
  k′MIC: 35.8571
  Retention Time: 2.6
  Dm: 0.0020
[1]; listed as Enalapril maleate
  Retention Time: 7.8
  k′MIC: 110.429
[1]; [6]
  Peff MIC (×10^−4 cm/s): 0.38 ×10^−4 cm/s
[1]; two peaks, hydrolyzed and non-hydrolyzed forms
  stability during the HPLC analyses: hydrolyzed to enalaprilat
[4]; Table 5
  % Absorbed: 60%
[4]; footnotes of Table 4 that tell the two cimetidine and two enalapril maleate lines apart
  Bioavailability: ^4Bioavailability = 60%;
[4]; reported in literature, either of two values
  percent absorption value: 60 and 100
[5]; Table 5
  Peff Loc-I-Gut (×10^−4 cm/s): 0.2 ×10^−4 cm/s
[5]; Table 9
  Peff Loc-I-Gut (×10^−4 cm/s): 0.2 ×10^−4 cm/s
[3]
  k′MIC (1:2): 34
  (1:2) k′ (pH 3): 27.33
  (1:2) k′ (pH 5): 37.33
  (1:2) k′ (pH 7): 34.00
  k′MIC (2:1): 20.7
  (2:1) k′ (pH 3): 31.86
  (2:1) k′ (pH 5): 21.86
  (2:1) k′ (pH 7): 20.67

## NC(=O)N1c2ccccc2C=Cc2ccccc21 [carbamazepine]
[1]; Table 5
  K′MIC: 59.00
[1]; Table 6
  K′MIC: 59.00
[1]
  k′MIC: 59.0000
  Retention Time: 4.2
  Dm: 0.0042
[1]; [6]
  Peff MIC (×10^−4 cm/s): 2.96 ×10^−4 cm/s
[1]; [7]
  Peff MIC (×10^−4 cm/s): 2.96 ×10^−4 cm/s
Caco-2; Table 5
  Peff Caco-2 (×10^−6 cm/s): 19.9 ×10^−6 cm/s
Caco-2; Table 6
  Peff Caco-2 (×10^−6 cm/s): 19.9 ×10^−6 cm/s
[5]; Table 5
  Peff Loc-I-Gut (×10^−4 cm/s): 4.3 ×10^−4 cm/s
[5]; Table 6
  Peff Loc-I-Gut (×10^−4 cm/s): 4.3 ×10^−4 cm/s

## COCCc1ccc(OCC(O)CNC(C)C)cc1 (stereo not drawn) [Metoprolol]
[1]
  δ = log k′MIC − log k′IAM: 1.14
  log k′MIC: 1.64
  k′MIC: 43.2857
  Retention Time: 3.1
  Dm: 0.0015
[1]; Table 5
  K′MIC: 43
[1]; Table 6
  K′MIC: 43.29
[1]; [6]
  Peff MIC (×10^−4 cm/s): 1.21 ×10^−4 cm/s
[1]; [7]
  Peff MIC (×10^−4 cm/s): 1.21 ×10^−4 cm/s
Caco-2; Table 5
  Peff Caco-2 (×10^−6 cm/s): 23.7 ×10^−6 cm/s
Caco-2; Table 6
  Peff Caco-2 (×10^−6 cm/s): 23.7 ×10^−6 cm/s
[3]
  k′MIC (1:2): 47.3
  (1:2) k′ (pH 3): 50.67
  (1:2) k′ (pH 5): 50.67
  (1:2) k′ (pH 7): 47.33
  k′MIC (2:1): 35.7
  (2:1) k′ (pH 3): 36.14
  (2:1) k′ (pH 5): 41.86
  (2:1) k′ (pH 7): 35.67

Source: patent publication US7659240B2, “Mucin immobilized chromatography” (Vertex Pharmaceuticals Incorporated, priority 2002, dated 2010)
